# Molecular target: T1, USP28 (His-tagged USP28-FL-mammalian) (Homo sapiens, UniProt Q96RU2)
# T1 construct: Expression of USP28 (1-1077)-TEV-6*His (pTT5 vector) was carried out in Expi293f cells; made in house; host or cells: Expi293F cells (pTT5 vector)
# T1 sequence (Q96RU2 1-1077): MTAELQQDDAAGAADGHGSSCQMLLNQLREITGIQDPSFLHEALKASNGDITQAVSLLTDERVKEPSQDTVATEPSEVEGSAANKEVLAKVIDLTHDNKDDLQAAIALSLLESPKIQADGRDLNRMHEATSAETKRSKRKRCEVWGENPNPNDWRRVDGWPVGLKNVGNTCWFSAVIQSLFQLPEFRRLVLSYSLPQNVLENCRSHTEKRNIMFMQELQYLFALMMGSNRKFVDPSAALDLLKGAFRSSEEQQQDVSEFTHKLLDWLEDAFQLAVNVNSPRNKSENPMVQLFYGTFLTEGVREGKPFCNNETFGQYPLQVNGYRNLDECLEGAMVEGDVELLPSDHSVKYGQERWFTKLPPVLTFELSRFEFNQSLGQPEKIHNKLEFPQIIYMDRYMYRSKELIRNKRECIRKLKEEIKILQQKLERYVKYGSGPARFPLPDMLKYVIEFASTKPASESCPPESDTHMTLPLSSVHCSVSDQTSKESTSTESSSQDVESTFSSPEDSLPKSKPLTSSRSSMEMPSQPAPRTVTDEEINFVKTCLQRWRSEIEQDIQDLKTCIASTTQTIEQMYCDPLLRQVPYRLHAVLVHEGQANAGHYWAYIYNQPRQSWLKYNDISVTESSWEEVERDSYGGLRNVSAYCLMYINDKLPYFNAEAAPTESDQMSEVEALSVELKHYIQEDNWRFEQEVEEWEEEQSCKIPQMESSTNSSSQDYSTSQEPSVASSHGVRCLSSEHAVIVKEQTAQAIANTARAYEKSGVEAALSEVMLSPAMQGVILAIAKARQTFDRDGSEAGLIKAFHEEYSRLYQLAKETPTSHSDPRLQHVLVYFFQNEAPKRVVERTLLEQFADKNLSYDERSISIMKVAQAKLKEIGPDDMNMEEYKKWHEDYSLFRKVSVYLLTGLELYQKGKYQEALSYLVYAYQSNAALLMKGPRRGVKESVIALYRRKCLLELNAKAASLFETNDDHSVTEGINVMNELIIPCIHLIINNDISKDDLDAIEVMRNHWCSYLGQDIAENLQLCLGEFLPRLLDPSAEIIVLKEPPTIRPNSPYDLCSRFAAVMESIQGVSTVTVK
# Assay: Ubiquitin-Rhodamine 110 Assay for USP28 Activity, Example A-1(a)
# Format: biochemical
# Conditions: Ubiquitin-Rhodamine 110 assay, read-out: USP28 A-1(a) IC50 range
# Procedure: Example A-1(a): Biochemical Assay: Ubiquitin-Rhodamine 110 Assay for USP28 Activity
# The assay was performed in a final volume of 9 μL in assay buffer containing 20 mM Tris-HCl (pH 8.0, (1M Tris-HCl, pH 8.0 solution; Corning 46-031-CM)), 3 mM BME (2-Mercaptoethanol; Sigma 63689-25ML-F), 0.03% BGG (0.22 μM filtered, Sigma, G7516-25G), and 0.01% Triton X-100 (Sigma, T9284-10L). Nanoliter quantities of 10-point, 3-fold serial dilution in DMSO was pre-dispensed into 1536 assay plates (Corning, #3724BC) for a final test concentration of 25 μM to 1.3 nM, top to lowest dose, respectively. Enzyme USP28, construct His-tagged USP28-FL-mammalian, (protein expression and purification procedure described below). Concentration and incubation times were optimized for the maximal signal-to-background while maintaining initial velocity conditions at a fixed substrate concentration. The final concentration of the enzyme in the assay was […]. Final substrate (Ub-Rh110; Ubiquitin-Rhodamine 110, UbiQ-126) concentration was 25 nM with [Ub-Rh110]<<Km. 3 μL of 2× enzyme was added to assay plates (pre-stamped with compound) preincubated with […] for 30 minutes and then 3 μL of 2× Ub-Rh110 was added to assay plates. Plates were incubated for 45 minutes at room temperature before addition of 3 μL of stop solution (final concentration of 10 mM citric acid (Sigma, 251275-500G)). Fluorescence was read on the Envision (Excitation at 485 nm and Emission at 535 nm; Perkin Elmer) or on the PheraSTAR (Excitation at 485 nm and Emission at 535 nm; BMG Labtech).
# Procedure for the Protein expression and purification for construct His-tagged USP28-FL-mammalian
# Expression of USP28 (1-1077)-TEV-6*His (pTT5 vector) was carried out in Expi293f cells (sequence derived from uniprot ID: Q96RU2-1). Cells were re-suspended in lysis buffer B 50 mM Bicine, pH 8.0, 20 mM NaCl, 5% glycerol, 0.1% CHAPS, 5 mM β-ME, 1 mM PMSF, 1 ug/ml Leupeptin, 1 ug/ml Pepstatin) and lysed by sonication. Insoluble material was removed by centrifugation and the supernatant was loaded onto a Ni-NTA column (GE Healthcare) equilibrated with Ni Buffer A (50 mM Bicine, pH 8.0, 20 mM NaCl, 5% glycerol, 0.1% CHAPS, 5 mM R-ME.) and washed with Ni Buffer A+20 mM imidazole until A280 reached baseline. The protein was eluted with Ni Buffer B (50 mM Bicine, pH 8.0, 20 mM NaCl, 5% glycerol, 0.1% CHAPS, 5 mM β-ME, 300 mM imidazole.). The protein was further purified using a Superdex™ 200 10/300 GL column (GE Healthcare) equilibrated with 50 mM Bicine, pH 8.0, 20 mM NaCl, 5% glycerol, 0.1% CHAPS, 5 mM β-ME. The protein was concentrated to 2.5 mg ml-1, flash-frozen in liquid N2 and stored at −80° C.
# For assay formats Example A-1(a), A-1(b), and A-2, data were reported as percent inhibition compared with control wells based on the following equation: % inh=1−((FLU−AveLow)/(AveHigh−AveLow)) where FLU=measured Fluorescence, AveLow=average Fluorescence of no enzyme control (n=16), and AveHighh=average Fluorescence of DMSO control (n=16). IC50 values were determined by curve fitting of the standard 4 parameter logistic fitting algorithm included in the Activity Base software package: IDBS XE Designer Model 205. Data is fitted using the Levenburg Marquardt algorithm.
row,Compound,IC50 [nM]
1,"CO[C@]1(C)CN(c2ccc3c(c2)OC[C@H](NC(=O)c2sc4nc(C)ccc4c2N)C3)C[C@H]1N [Example 282, 3-amino-N-[(3R)-7-[(3R,4R)-4-amino-3-methoxy-3-methylpyrrolidin-1-yl]-3,4-dihydro-2H-1-benzopyran-3-yl]-6-methylthieno[2,3-b]pyridine-2-carboxamide]",200 to 2000

# Same assay, conditions: Ubiquitin-Rhodamine 110 biochemical assay, read-out: USP28 A-1(a) IC50 range
row,Compound,IC50 [nM]
1,"CO[C@H]1CN(c2ccc3c(n2)CC[C@H](NC(=O)c2sc4nc(C)cnc4c2N)C3)C[C@H]1N [Example 492, 7-amino-N-[(6S)-2-[(3R,4S)-3-amino-4-methoxypyrrolidin-1-yl]-5,6,7,8-tetrahydroquinolin-6-yl]-3-methylthieno[2,3-b]pyrazine-6-carboxamide]",50 to 200
2,"Cc1cnc2c(N)c(C(=O)N[C@H]3CCc4nc(N5C[C@@H](N)C6(C5)OCCO6)ccc4C3)sc2n1 [Example 499, 7-amino-N-[(6S)-2-[(9R)-9-amino-1,4-dioxa-7-azaspiro[4.4]nonan-7-yl]-5,6,7,8-tetrahydroquinolin-6-yl]-3-methylthieno[2,3-b]pyrazine-6-carboxamide]",200 to 2000
3,"CO[C@@H](C)CO[C@H]1CN(c2ccc3c(n2)CC[C@H](NC(=O)c2sc4nc(C)ccc4c2N)C3)C[C@@H]1N [Example 481, 3-amino-N-[(6S)-2-[(3S,4S)-3-amino-4-[(2S)-2-methoxypropoxy]pyrrolidin-1-yl]-5,6,7,8-tetrahydroquinolin-6-yl]-6-methylthieno[2,3-b]pyridine-2-carboxamide]",50 to 200
4,"Cc1ccc2c(N)c(C(=O)N[C@H]3CCc4nc(N5CC[C@]6(CCCN6)C5)ccc4C3)sc2n1 [Example 505, 3-amino-N-[(6S)-2-[(5R)-1,7-diazaspiro[4.4]nonan-7-yl]-5,6,7,8-tetrahydroquinolin-6-yl]-6-methylthieno[2,3-b]pyridine-2-carboxamide]",50 to 200
5,"3-amino-N-[(6S)-2-[(3S,4R)-3-(methoxymethyl)-4-[(^2H3)methylamino]pyrrolidin-1-yl]-5,6,7,8-tetrahydroquinolin-6-yl]-6-methylthieno[2,3-b]pyridine-2-carboxamide [Example 486]",50 to 200
6,"Cc1ccc2c(N)c(C(=O)N[C@H]3CCc4nc(N5C[C@@H](COC(F)(F)F)[C@@H](N)C5)ccc4C3)sc2n1 [Example 484, 3-amino-N-[(6S)-2-[(3R,4R)-3-amino-4-[(trifluoromethoxy)methyl]pyrrolidin-1-yl]-5,6,7,8-tetrahydroquinolin-6-yl]-6-methylthieno[2,3-b]pyridine-2-carboxamide]",200 to 2000
7,"CN[C@@H]1CN(c2ccc3c(n2)CC[C@H](NC(=O)c2sc4nc(C)ccc4c2N)C3)C[C@@H]1COC [Example 489, 3-amino-N-[(6S)-2-[(3S,4S)-3-(methoxymethyl)-4-(methylamino)pyrrolidin-1-yl]-5,6,7,8-tetrahydroquinolin-6-yl]-6-methylthieno[2,3-b]pyridine-2-carboxamide]",50 to 200
8,"Cc1ccc2c(N)c(C(=O)N[C@H]3CCc4nc(N5C[C@H](COC(F)F)[C@H](N)C5)ccc4C3)sc2n1 [Example 517, 3-amino-N-[(6S)-2-[(3S,4S)-3-amino-4-[(difluoromethoxy)methyl]pyrrolidin-1-yl]-5,6,7,8-tetrahydroquinolin-6-yl]-6-methylthieno[2,3-b]pyridine-2-carboxamide]",50 to 200
9,"Cc1ccc2c(N)c(C(=O)N[C@H]3CCc4nc(N5C[C@H](N)[C@@]6(CCCCO6)C5)ccc4C3)sc2n1 [Example 508, 3-amino-N-[(6S)-2-[(4S,5R)-4-amino-6-oxa-2-azaspiro[4.5]decan-2-yl]-5,6,7,8-tetrahydroquinolin-6-yl]-6-methylthieno[2,3-b]pyridine-2-carboxamide]",50 to 200

# Same assay, conditions: biochemical IC50 range, Ubiquitin-Rhodamine 110 assay, read-out: USP28 A-1(a)
row,Compound,IC50 [nM]
1,"Cc1ccc2c(N)c(C(=O)N[C@H]3COc4cc(N5C[C@@H](N)[C@]6(C5)OCC[C@H]6C)ccc4C3)sc2n1 (single isomer, unassigned) [Example 612-4]",1 to 50
2,"Cc1ccc2c(N)c(C(=O)N[C@H]3COc4cc(OC[C@H]5CNC[C@@H]5C(F)(F)F)ccc4C3)sc2n1 [Example 688, 3-amino-6-methyl-N-[(3R)-7-{[(3R,4R)-4-(trifluoromethyl)pyrrolidin-3-yl]methoxy}-3,4-dihydro-2H-1-benzopyran-3-yl]thieno[2,3-b]pyridine-2-carboxamide]",1 to 50
3,"Cc1ccc2c(N)c(C(=O)N[C@H]3COc4nc(N5C[C@@H](CF)[C@H](N)C5)ccc4C3)sc2n1 [Example 542, 3-amino-N-[(3R)-7-[(3S,4R)-3-amino-4-(fluoromethyl)pyrrolidin-1-yl]-2H,3H,4H-pyrano[2,3-b]pyridin-3-yl]-6-methylthieno[2,3-b]pyridine-2-carboxamide]",50 to 200
4,"Cc1ccc2c(N)c(C(=O)N[C@H]3COc4cc(OC[C@@H]5CNCC5(F)F)ccc4C3)sc2n1 [Example 685, 3-amino-N-[(3R)-7-{[(3S)-4,4-difluoropyrrolidin-3-yl]methoxy}-3,4-dihydro-2H-1-benzopyran-3-yl]-6-methylthieno[2,3-b]pyridine-2-carboxamide]",1 to 50
5,"Cc1ccc2c(N)c(C(=O)NC3COc4cc(N5CC6NCC(F)(F)C6C5)ccc4C3)sc2n1 [Example 654, N-[(3R)-7-[(3aS,6aS)-3,3-difluorooctahydropyrrolo[3,4-b]pyrrol-5-yll-3,4-dihydro-2H-1-benzopyran-3-yl]-3-amino-6-methylthieno[2,3-b]pyridine-2-carboxamide]",1 to 50
6,"CNc1ncc(C(=O)N[C@H]2COc3cc(N4CCNCC4)ccc3C2)c2c1CCCN2 [Example 677, 5-(methylamino)-N-[(3R)-7-(piperazin-1-yl)-3,4-dihydro-2H-1-benzopyran-3-yl]-1,2,3,4-tetrahydro-1,6-naphthyridine-8-carboxamide]",200 to 2000

# Source: patent US12162888B2, “Carboxamides as ubiquitin-specific protease inhibitors” (Valo Early Discovery, Inc., priority 2018, dated 2024)
